Source: paper doi:10.1101/2023.02.27.530254, “Large library docking for cannabinoid-1 receptor agonists with reduced side effects” (bioRxiv, 2024)

Assays:
hCB1 [1] = biological target: T1, hCB1 (Homo sapiens, UniProt P21554); assay: DiscoverX PathHunter β-arrestin-2 recruitment assay; format: cell-based; conditions: hCB1 DiscoverX ß-arrestin recruitment EC50 [95% CI]
Method: PathHunter cell lines (CHO-K1 lineage expressing hCB1) were expanded from freezer stocks according to standard procedures. Cells were seeded in a total volume of 20 μL into white walled, 384-well microplates and incubated at 37°C for the appropriate time prior to testing. For agonist determination, cells were incubated with sample to induce response. Intermediate dilution of sample stocks was performed to generate 5X sample in assay buffer. 5 μL of 5X sample was added to cells and incubated at 37°C or room temperature for 90 to 180 minutes. Vehicle concentration was 1%. […] Microplates were read following signal generation with a PerkinElmer EnvisionTM instrument for chemiluminescent signal detection. Compound activity was analyzed using CBIS data analysis suite (ChemInnovation, CA).
The data were analyzed in GraphPad Prism 9.1 using “dose–response-stimulation log(agonist) versus response (four parameters)” and data were presented as EC50 or pEC50 ± CIs of one independent experiment in duplicate.

CB1 = biological target: T2, CB1 (Rattus norvegicus, UniProt P20272); assay: Radioligand competition binding with [3H]-CP-55,940, rat brain membranes; conditions: for Emax: maximal radioligand displacement, read-out: rCB1 binding Emax [SEM]; for Ki: rCB1 binding Ki [95% CI], [3H]-CP-55,940 competition, rat brain membranes
T2 construct: membrane preparations from rat brain (source of CB1); tissue Bioivt RAT00BRAINMZN; host or cells: rat brain
T2 sequence (P20272 whole entry): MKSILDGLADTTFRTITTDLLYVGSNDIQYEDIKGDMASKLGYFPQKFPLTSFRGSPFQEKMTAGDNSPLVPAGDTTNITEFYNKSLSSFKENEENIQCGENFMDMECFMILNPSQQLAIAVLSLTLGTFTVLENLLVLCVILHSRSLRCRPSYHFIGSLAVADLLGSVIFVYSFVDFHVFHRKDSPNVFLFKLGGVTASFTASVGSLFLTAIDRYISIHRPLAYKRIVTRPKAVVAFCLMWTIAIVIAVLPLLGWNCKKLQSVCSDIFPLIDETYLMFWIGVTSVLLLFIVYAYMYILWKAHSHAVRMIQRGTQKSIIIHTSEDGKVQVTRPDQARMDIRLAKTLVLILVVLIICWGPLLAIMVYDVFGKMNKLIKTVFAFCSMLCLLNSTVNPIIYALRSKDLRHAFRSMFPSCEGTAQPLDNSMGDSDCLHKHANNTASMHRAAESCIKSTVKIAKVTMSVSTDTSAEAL
Method: The results were analyzed using nonlinear regression to determine the IC50 and Ki values for each ligand (Prism by GraphPad Software, Inc., San Diego, CA). The Ki values are expressed as the mean of two to three experiments each performed in triplicate.

hCB1 [2] = biological target: T1, hCB1; assay: Tango β-arrestin-2 recruitment assay, HTLA cells; format: cell-based; design: expressed in transfected cells
Method: (§1) The Tango β-arrestin-2 recruitment assays were performed as described. In brief, HTLA cells were transiently transfected with human CB1R or CB2R Tango DNA construct overnight in DMEM supplemented with 10 % FBS, 100 μg ml−1 streptomycin and 100 U ml−1 penicillin. The transfected cells were then plated into poly-L-lysine-coated 384-well white clear-bottom cell culture plates in DMEM containing 1% dialysed FBS at a density of 10,000–15,000 cells per well. After incubation for 6 h, the plates were added with drug solutions prepared in DMEM containing 1% dialysed FBS for overnight incubation. On the day of assay, medium and drug solutions were removed and 20 μl per well of BrightGlo reagent (Promega) was added. The plates were further incubated for 20 min at room temperature and counted using the Wallac TriLux Microbeta counter (PerkinElmer). The results were analysed using GraphPad Prism 9.1. Each experiment was performed in triplicate and functional […] values were determined from the mean of three independent experiments.

hCB2 [3] = biological target: T3, hCB2 (Homo sapiens, UniProt P34972); assay: Cerep cAMP assay; format: cell-based
T3 sequence (P34972 whole entry): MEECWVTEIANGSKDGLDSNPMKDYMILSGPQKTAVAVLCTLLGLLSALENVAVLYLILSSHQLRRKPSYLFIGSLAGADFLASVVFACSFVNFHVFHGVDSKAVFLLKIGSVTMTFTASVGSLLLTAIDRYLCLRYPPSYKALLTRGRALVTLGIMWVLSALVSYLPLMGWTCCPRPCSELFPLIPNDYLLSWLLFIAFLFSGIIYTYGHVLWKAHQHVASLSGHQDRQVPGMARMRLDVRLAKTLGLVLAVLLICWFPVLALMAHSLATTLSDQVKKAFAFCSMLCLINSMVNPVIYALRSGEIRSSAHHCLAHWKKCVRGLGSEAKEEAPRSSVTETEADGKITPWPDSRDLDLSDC

hCB1 [4] = biological target: T1, hCB1; assay: Cerep HTRF cAMP inhibition assay, hCB1 CHO-K1 cells; format: cell-based
Method: The hCB1 CHO-K1 cells are suspended in HBSS buffer (Invitrogen) complemented with 20 mM HEPES (pH 7.4), then distributed in microplates at a density of 5.103 cells/well in the presence of either of the following: HBSS (basal control), the reference agonist at 30 nM (stimulated control) or the test compounds. […] Following 30 min incubation at 37°C, the cells are lysed, and the fluorescence acceptor (D2-labeled cAMP) and fluorescence donor (anti-cAMP antibody labeled with europium cryptate) are added. […] Each measurement was done in triplicate.

hCB2 [5] = biological target: T3, hCB2; assay: Tango β-arrestin-2 recruitment assay, HTLA cells; format: cell-based; design: expressed in transfected cells; host or cells: HTLA (transient); conditions: for Emax: HTLA, read-out: hCB2 Tango ß-arrestin recruitment Emax [95% CI]
Method: as §1

hCB1 [6] = biological target: T1, hCB1; assay: Lance Ultra cAMP accumulation assay (inhibition of forskolin-stimulated cAMP), CHO cells; format: cell-based; design: expressed in transfected cells; conditions: hCB1-expressing cells
Method: The inhibition of forskolin-stimulated cAMP accumulation assays was carried out using PerkinElmer’s Lance Ultra cAMP kit following the manufacturer’s protocol. In brief, CHO cells stably expressing human CB1R were harvested by incubation with Versene (ThermoFisher Scientific, Waltham, MA) for 10 min, washed once with Hank’s Balanced Salt Solution, and resuspended in stimulation buffer at ~200 cells/μL density. The ligands at eight different concentrations (0.001–10,000 nM) in stimulation buffer (5 μL) containing forskolin (2 μM final concentration) were added to a 384-well plate followed by the cell suspension (5 μL; ~1000 cells/well). The plate was incubated for 30 min at room temperature. Eu-cAMP tracer (5 μL) and Ulight-anti-cAMP (5 μL) working solutions were then added to each well, and the plate was incubated at room temperature for an additional 60 min. Results were measured on a Perkin-Elmer EnVision plate reader. The EC50 values were determined by nonlinear regression analysis using Prism software (GraphPad Software, Inc., San Diego, CA) and are expressed as the mean of three experiments, each performed in triplicate.

hCB1 [7] = biological target: T1, hCB1; assay: bioSens-All ebBRET effector biosensor signaling profiling, HEK293; format: cell-based; design: host or cells: HEK293 (HEK293SL clone), transient
Method: ebBRET-based effector membrane translocation biosensor assays were conducted at Domain Therapeutics NA Inc. (Montreal, QC, Canada) as previously described. […] HEK293 cells were maintained in Dulbecco’s Modified Eagle Medium (DMEM) (Wisent) supplemented with 1% penicillin- streptomycin (Wisent) and 10% (or 2 % for transfection) fetal bovine serum (Wisent) at 37°C with 5% CO2. All biosensor-coding plasmids and related information are the property of Domain Therapeutics NA Inc. The total amount of transfected DNA was adjusted and kept constant at 1 μg per mL of cell culture to be transfected using salmon sperm DNA (Invitrogen) as ‘carrier’ DNA, PEI (polyethylenimine 25 kDa linear, PolyScience) and DNA (3:1 ml PEI:mg DNA ratio) were first diluted separately in 150 mM NaCl then mixed and incubated for at least 20 minutes at room temperature to allow for the formation of DNA/PEI complexes. During the incubation, HEK293 cells were detached, counted, and re-suspended in maintenance medium to a 350,000 cells per mL density. At the end of the incubation period, the DNA/PEI mixture was added to the cells. Cells were finally distributed in 96-well plates (White Opaque 96-well /Microplates, Greiner) at a density of 35,000 cells per well. Forty-eight hours post-transfection, medium was aspirated and replaced with 100 μl of Hank’s Balanced Salt Solution buffer (HBSS) (Wisent) per well using 450-Select TS Biotek plate washer. After 60 min incubation in this medium, 10 μL of 10 μM e-Coelenterazine Prolume Purple (Methoxy e-CTZ) (Nanolight) was added to each well for a final concentration of 1 μM immediately followed by addition of increasing concentrations of the test compounds to each well using the HP D300 digital dispenser (Tecan). All compounds were assayed at 22 concentrations with each biosensor after a 10-minute room temperature incubation period. […] All BRET ratios were standardized using the universal BRET (uBRET) equation: uBRET=BRETratio-A/B-A×10,000 where A is the BRET ratio obtained from transfection of negative control and B is the BRET ratio obtained from transfection of positive control. […] The data were analyzed using the four-parameter logistic non-linear regression model in GraphPad Prism 9.1 and data were presented as means ± CIs of 1–4 independent experiments.
The SEM was calculated for the logEmax/EC50 ratios using the following equation: SEM=σ/n where σ is the standard deviation, and n is the number of experiments.

CB1R = biological target: T4, CB1R (Homo sapiens, UniProt P21554, C107A/C139A/C149A/C238A/C355A/C382A/C386A/C415A/C431A/C449A/C98A/R336C); assay: Bimane fluorescence of TM6-labeled minimal cysteine CB1R; format: biochemical; conditions: 10 μM ligand; apo 459 nm
T4 construct: N-terminal FLAG tag and C-terminal histidine tag was added to human full-length CB1; FLAG (N); histidine tag (C); made in house; host or cells: Spodoptera frugiperda Sf9 (baculovirus)
T4 sequence (P21554 whole entry C98A/C107A/C139A/C149A/C238A/R336C/C355A/C382A/C386A/C415A/C431A/C449A): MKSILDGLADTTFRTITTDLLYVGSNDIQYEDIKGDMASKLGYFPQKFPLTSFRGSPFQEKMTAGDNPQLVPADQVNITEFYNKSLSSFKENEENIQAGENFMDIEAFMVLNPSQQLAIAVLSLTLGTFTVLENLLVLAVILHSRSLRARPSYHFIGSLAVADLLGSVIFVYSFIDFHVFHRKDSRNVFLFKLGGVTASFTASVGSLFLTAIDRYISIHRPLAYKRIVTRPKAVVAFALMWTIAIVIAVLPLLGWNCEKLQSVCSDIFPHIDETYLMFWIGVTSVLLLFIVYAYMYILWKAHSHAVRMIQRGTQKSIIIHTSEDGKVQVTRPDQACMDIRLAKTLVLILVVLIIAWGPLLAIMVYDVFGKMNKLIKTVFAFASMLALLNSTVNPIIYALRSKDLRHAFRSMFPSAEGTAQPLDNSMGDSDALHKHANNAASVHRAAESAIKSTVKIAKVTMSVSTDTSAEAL
Method: A minimal cysteine version of CB1R was generated[73] where all the cysteine residues (except C256 and C264) were mutated to alanine. […] Excess label was removed using size exclusion chromatography on a Superdex 200 10/300 Increase column in 20 mM HEPES pH 7.5, 100 mM NaCl and 0.01% MNG/0.001% CHS. Bimane-labeled CB1R at […] was incubated with ligands (10 μM) for one hour at room temperature. Fluorescence data was collected at room temperature in a 150 μL cuvette with a FluorEssence v3.8 software on a Fluorolog instrument (Horiba) in photon-counting mode. Bimane fluorescence was measured by excitation at 370 nm with excitation and emission bandwidth passes of 4 nm. The emission spectra were recorded from 410 to 510 nm with 1 nm increment and 0.1 s integration time.

hCB2 [8] = biological target: T3, hCB2; assay: TRUPATH BRET2 GoA dissociation assay, HEK293T; format: cell-based; design: expressed in transfected cells; host or cells: HEK293T (transient); conditions: HEK-293T, read-out: hCB2 BRET2 + GoA Emax [95% CI]
Method: […]. GoA dissociation BRET2 assays were performed as previously described with minor modifications. In brief, HEK293T cells were co-transfected overnight with human CB2 receptor, GαoA-Rluc, Gβ3, and Gγ9-GFP2 constructs. After 18–24 hours, the transfected cells were seeded into poly-L-lysine-coated 384-well white clear-bottom cell culture plates at a density of 15,000–20,000 cells and incubated with DMEM containing 1% dialyzed FBS, 100 U mL−1 of penicillin and 100 μg ml−1 of streptomycin for another 24 hours. The next day, the medium was aspirated and washed once with 20 μL of assay buffer (1× HBSS, 20 mM HEPES, 0.1% BSA, pH 7.4). Then, 20 μL of drug buffer containing coelenterazine 400a (Nanolight Technology) at 5 μM final concentration was added to each well and incubated for 5 minutes, followed by the addition of 10 μL of 3X designated drug buffer for 5 minutes. Then, 10 μL of 4X final concentrations of ligands were added for 5 minutes. […] BRET ratio was computed as the ratio of the GFP2 emission to RLuc8 emission. […] Each experiment was performed in triplicate and functional IC50 values were determined from the mean of four independent experiments.

[9] = HEK293, read-out: hCB1 Gi1 Emax [95% CI]
[10] = HEK293, read-out: hCB1 GoB Emax [95% CI]
[11] = HEK293, read-out: hCB1 Gz Emax [95% CI]

T1 sequence (P21554 whole entry): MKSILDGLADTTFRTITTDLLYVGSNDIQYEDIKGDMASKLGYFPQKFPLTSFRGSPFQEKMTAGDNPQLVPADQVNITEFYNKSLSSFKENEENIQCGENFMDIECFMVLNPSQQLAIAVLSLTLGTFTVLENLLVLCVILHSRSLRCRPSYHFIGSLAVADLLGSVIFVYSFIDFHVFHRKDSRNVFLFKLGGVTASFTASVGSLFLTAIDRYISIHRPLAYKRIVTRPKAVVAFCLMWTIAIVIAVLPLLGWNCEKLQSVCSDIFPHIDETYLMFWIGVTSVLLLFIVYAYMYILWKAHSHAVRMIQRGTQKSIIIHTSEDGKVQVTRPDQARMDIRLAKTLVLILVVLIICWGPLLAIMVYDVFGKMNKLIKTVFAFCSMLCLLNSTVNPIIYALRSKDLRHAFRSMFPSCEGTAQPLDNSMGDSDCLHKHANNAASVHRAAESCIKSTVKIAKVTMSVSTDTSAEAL

Compound | Emax (CB1) | Ki (CB1) | EC50 (hCB1 [2]) | EC50 (hCB2 [5]) | Emax (hCB2 [5]) | functional efficacy (decrease in forskolin stimulated cAMP) (hCB1 [6]) | Emax (hCB1 [7]; [9]) | Emax (hCB1 [7]; [10]) | EC50 (hCB1 [7]; hCB1 Gi1 EC50 [95% CI]) | EC50 (hCB1 [7]; hCB1 Gi1 pEC50 [95% CI]) | EC50 (hCB1 [7]; hCB1 GoB EC50 [95% CI]) | Emax (hCB1 [7]; [11]) | EC50 (hCB1 [7]; hCB1 GoB pEC50 [95% CI]) | EC50 (hCB1 [7]; hCB1 Gz EC50 [95% CI]) | further results
Cc1cc(C(=O)N2CC3(CCC3)C2C2CCCO2)nn1-c1cccc(C(F)(F)F)c1 (stereo not shown) [‘3737] | 112% | 173 nM | > 10000 nM | 1500 nM | 9% |  |  |  |  |  |  |  |  |  | EC50 (hCB1 [1]): > 10000 nM; EC50 (hCB2 [3]): 4.3 nM; Emax (hCB2 [3]; read-out: hCB2 Cerep cAMP Emax [95% CI]): 45%; EC50 (hCB1 [4]): 326 nM; Emax (hCB1 [4]; CHO-K1, read-out: hCB1 Cerep cAMP Emax [95% CI]): 99%
Cn1nc(-c2nnc(C(C)(C)Oc3ccc(Cl)cc3)o2)c2ccccc2c1=O [‘0450] |  | 691 nM |  |  |  | modest agonism | 49% | 36% | 56300 nM | 50100 nM | 2510 nM |  |  |  | 
COC(=O)[C@@H]1[C@@H]2CCC[C@@H]2CN1C(=O)c1cc(C)n(-c2cccc(Cl)c2)n1 [‘10010] | 101% | 1200 nM | > 10000 nM | 556 nM | 18% |  | 74% | 71% | 814 nM |  | 801 nM | 144% | 794 nM | 1400 nM | % [3H]-CP-55,940 displacement (mean) from single point screen (CB1; screens at 10 μM (white cells), 1 μM (orange) or 300 nM (green), cell colours not visible): 33.86%
COC(=O)C(NC(=O)c1cc(C)n(-c2cccc(F)c2)n1)c1cccs1 (stereo not shown) [‘51486] |  | 731 nM |  |  |  | modest agonism | 73% | 74% |  |  | 711 nM | 130% | 631 nM | 1120 nM | LE (CB1; ligand efficiency): 0.32; LLE (CB1; lipophilic ligand efficiency): 3.1; EC50 (hCB1 [7]; hCB1 Gi1 EC50 [95% CI], Gi1 sensor): 849 nM
COC(=O)[C@@H](NC(=O)c1nn(Cc2ccc(F)cc2)c2ccccc12)C(C)(C)C [MDMB-fubinaca, reference compound] |  |  |  |  |  |  |  |  |  |  |  |  |  |  | bimane spectrum λmax (CB1R): 465 nm
COC(=O)[C@@H]1[C@@H]2CCC[C@@H]2CN1C(=O)c1cc(C)n(-c2cccc(C(F)(F)F)c2)n1 [‘6439] | 106% | 251 nM | > 10000 nM | 338 nM | 14% |  | 95% | 100% |  | 63.1 nM | 60.9 nM | 162% | 63.1 nM | 339 nM | Emax (hCB2 [8]): 81%
